The term pIC50 denotes the IC50 on a negative log10 scale, so that one unit is a factor of ten. Read a high pIC50 as a low IC50.

pIC50: −log10 of the molar value.

The target of this assay is T1, h-11βHSD1 (Homo sapiens, UniProt P28845).
T1 construct: made in house
As to the kind of experiment: 11βHSD1 enzyme assay (SPA). The class given is biochemical. The conditions noted are these: yeast extract with h-11βHSD1, 120 nM 3H-cortisone, 4 mM β-NADPH, 60 min at 30° C. As for the experimental part: Pharmacological Methods 11βHSD1 Enzyme Assay Materials
^3H-cortisone and anti-rabbit Ig coated scintillation proximity assay (SPA) beads were purchased from Amersham Pharmacia Biotech, β-NADPH was from Sigma and rabbit anti-cortisol antibodies were from Fitzgerald. An extract of yeast transformed with h-11βHSD1 (Hult et al., FEBS Lett, 441, 25 (1998)) was used as the source of enzyme. The test compounds were dissolved in DMSO (10 mM). All dilutions were performed in a buffer containing 50 mM TRIS-HCl (Sigma Chemical Co), 4 mM EDTA (Sigma Chemical Co), 0.1% BSA (Sigma Chemical Co), 0.01% Tween-20 (Sigma Chemical Co) and 0.005% bacitracin (Novo Nordisk A/S), pH=7.4. Optiplate 96 wells plates were supplied by Packard. The amount of ^3H-cortisol bound to the SPA beads was measured on TopCount NXT, Packard.
h-11βHSD1, 120 nM ^3H-cortisone, 4 mM β-NADPH, antibody (1:200), serial dilutions of test compound and SPA particles (2 mg/well) were added to the wells. The reaction was initiated by mixing the different components and was allowed to proceed under shaking for 60 min at 30° C. […] Data was analysed using GraphPad Prism software.

T1 sequence (P28845 whole entry): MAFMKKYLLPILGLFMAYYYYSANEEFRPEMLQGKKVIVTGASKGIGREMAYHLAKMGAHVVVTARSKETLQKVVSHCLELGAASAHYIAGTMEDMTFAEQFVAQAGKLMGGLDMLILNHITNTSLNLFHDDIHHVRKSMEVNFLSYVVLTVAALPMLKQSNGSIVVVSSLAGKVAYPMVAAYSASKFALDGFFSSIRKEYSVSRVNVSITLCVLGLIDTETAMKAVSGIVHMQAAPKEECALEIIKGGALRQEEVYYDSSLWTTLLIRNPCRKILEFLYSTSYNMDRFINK

Consider `Cc1cc(C(F)(F)F)n2nc(C(=O)N3CCCCC3)cc2n1` [Example 3, (5-methyl-7-trifluoromethyl-pyrazolo[1,5-a]pyrimidin-2-yl)-(piperidin-1-yl)methanone], for which the pIC50 is 5.33.

Consider `Cc1cc(-c2ccccc2)n2nc(C(=O)N(C)C3CCCCC3)cc2n1` [Example 4], for which the pIC50 is 6.47. This pIC50 lies 1.14 log units higher than the previous one.

These data come from patent US20070270408A1, “Pharmaceutical use of substituted pyrazolo[1,5-a]pyrimidines” (Novo Nordisk A/S, priority 2003, published 2007).
